Measured values published in ChEMBL document CHEMBL5584239, “Discovery of novel quinoline scaffold selective estrogen receptor degraders (SERDs) for treatment of ER positive breast cancer with enhanced antiproliferative bioactivity through immunogenic cell death (ICD) effects” (Eur J Med Chem, 2024).
Blank lines part the entries; values can stand above or below the compound they belong to. The source made the active and inactive calls. The calls are words filed in the database; no cut-off is given here.

Tests used:
[1] = test system: Ishikawa; assay: Antiproliferative activity against human Ishikawa cells at 20 uM incubated for 3 days by MTT assay relative to control; type: functional; conditions: 72 h, time 3 day
[2] = test system: MCF7; assay: Induction of ROS production in human MCF7 cells incubated for 3 to 24 hrs by immunofluorescence analysis; type: functional, cell-based; conditions: time 3-24 hrs
[3] = test system: MCF7; assay: Antiproliferative activity against human MCF7 cells incubated for 5 days by MTT assay; type: functional, cell-based; conditions: MCF7, 120 h
[4] = test system: MCF7; assay: Induction of cell cycle arrest at G0/G1 phase in human MCF7 cells at 10 uM incubated for 24 hrs by PI/RNase staining based flow cytometry (reference value: 53.5 +/- 1.96 %); type: functional
[5] = test system: MCF7; assay: Induction of immunogenic cell death in human MCF7 cells assessed as HSP90 exposure at 10 uM by Western blot analysis; type: functional, cell-based
[6] = test system: MCF7; assay: Induction of immunogenic cell death in human MCF7 cells assessed as CRT translocation at 10 uM by FITC staining based flow cytometry; type: functional
[7] = molecular target: T1, Estrogen receptor (Homo sapiens) (UniProt P03372); assay: Induction of estrogen receptor degradation in MG-132-treated human MCF7 cells at 10 uM incubated for 4 to 6 hrs by Western blot analysis; type: cell-based; conditions: time 4-6 hrs
T1 sequence (whole entry): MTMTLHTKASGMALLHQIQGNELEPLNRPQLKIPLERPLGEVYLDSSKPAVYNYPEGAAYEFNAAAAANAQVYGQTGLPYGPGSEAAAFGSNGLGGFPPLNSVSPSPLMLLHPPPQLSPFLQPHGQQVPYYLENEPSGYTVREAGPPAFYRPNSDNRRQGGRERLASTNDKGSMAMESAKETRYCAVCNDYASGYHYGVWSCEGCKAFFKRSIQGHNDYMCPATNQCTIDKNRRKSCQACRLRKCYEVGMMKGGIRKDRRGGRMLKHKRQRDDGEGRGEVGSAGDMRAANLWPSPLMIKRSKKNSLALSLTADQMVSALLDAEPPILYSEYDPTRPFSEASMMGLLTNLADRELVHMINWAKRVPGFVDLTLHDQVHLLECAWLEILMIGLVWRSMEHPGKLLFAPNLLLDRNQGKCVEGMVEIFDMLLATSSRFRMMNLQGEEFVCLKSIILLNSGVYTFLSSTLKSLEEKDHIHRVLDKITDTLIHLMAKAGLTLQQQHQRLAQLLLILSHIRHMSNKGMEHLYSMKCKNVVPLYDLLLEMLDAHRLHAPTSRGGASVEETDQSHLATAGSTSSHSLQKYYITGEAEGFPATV

[8] = test system: MCF7; assay: Induction of endoplasmic reticulum stress effect in human MCF7 cells assessed as change in calnexin level at 10 uM incubated for 3 to 24 hrs by Western blot analysis; type: functional, cell-based; conditions: time 3-24 hrs
[9] = test system: MCF7; assay: Induction of immunogenic cell death in human MCF7 cells assessed as HMGB1 release from nucleus at 10 uM by FITC staining based flow cytometry; type: functional
[10] = molecular target: T1, Estrogen receptor (Homo sapiens); assay: Induction of estrogen receptor degradation in estradiol-stimulated human MCF7 cells assessed as decrease in PGR mRNA level incubated for 24 hrs by RT-qPCR analysis; type: cell-based; conditions: dose 1-10 µM
[11] = test system: MCF7; assay: Induction of endoplasmic reticulum stress effect in human MCF7 cells assessed as change in EIF-2alpha level at 10 uM incubated for 3 to 24 hrs by Western blot analysis; type: functional, cell-based; conditions: time 3-24 hrs
[12] = molecular target: T1, Estrogen receptor (Homo sapiens); assay: Induction of estrogen receptor degradation in human MCF7 cells incubated for 24 hrs by Western blot analysis; type: cell-based; conditions: dose 0.001-10 µM
[13] = Toxicity in nude mouse model xenografted with human MCF7 cells assessed as body weight loss at 60 mg/kg, po administered daily via gavage for 30 days; type: organism-based; conditions: in vivo, 720 h, time 30 day
[14] = test system: MCF7; assay: Induction of immunogenic cell death in human MCF7 cells assessed as HMGB1 release from nucleus at 10 uM by Western blot analysis; type: functional, cell-based
[15] = test system: MCF7; assay: Antitumor activity against human MCF7 cells xenografted in nude mouse model at 60 mg/kg, po administered daily via gavage for 30 days in presence of ribociclib; type: functional, organism-based; conditions: time 30.0 day
[16] = test system: MCF7; assay: Induction of ROS production in human MCF7 cells measured after 6 to 24 hrs by flow cytometry; type: functional, cell-based; conditions: time 6-24 hrs
[17] = molecular target: T1, Estrogen receptor (Homo sapiens); assay: Induction of estrogen receptor degradation in human MCF7 cells at 10 uM by fluorescence microscopy; type: cell-based
[18] = molecular target: T1, Estrogen receptor (Homo sapiens); assay: Induction of estrogen receptor degradation in estradiol-stimulated human MCF7 cells assessed as decrease in TFF1 mRNA level incubated for 24 hrs by RT-qPCR analysis; type: cell-based; conditions: dose 1-10 µM
[19] = test system: MCF7; assay: Antitumor activity against human MCF7 cells xenografted in nude mouse model assessed as reduction in Ki67 level at 60 mg/kg, po administered daily via gavage for 30 days in presence of ribociclib by IHC analysis; type: functional, organism-based; conditions: time 30.0 day
[20] = test system: MCF7; assay: Induction of immunogenic cell death in human MCF7 cells assessed as CRT translocation at 10 uM by Western blot analysis; type: functional, cell-based
[21] = test system: MCF7; assay: Induction of endoplasmic reticulum stress effect in human MCF7 cells assessed as change in pEIF-2alpha level at 10 uM incubated for 3 to 24 hrs by Western blot analysis; type: functional, cell-based; conditions: time 3-24 hrs
[22] = molecular target: T1, Estrogen receptor (Homo sapiens); assay: Induction of estrogen receptor degradation in human MCF7 cells expressing ERE-luciferase at 10 uM incubated for 24 hrs by luminescence based analysis; type: cell-based
[23] = test system: MCF7; assay: Induction of endoplasmic reticulum stress effect in human MCF7 cells assessed as change in CHOP level at 10 uM incubated for 3 to 24 hrs by Western blot analysis; type: functional, cell-based; conditions: time 3-24 hrs
[24] = Toxicity in nude mouse model xenografted with human MCF7 cells assessed as morphological change in heart at 60 mg/kg, po administered daily via gavage for 30 days by H and E staining based analysis; type: organism-based; conditions: in vivo, 720 h, time 30 day
[25] = test system: MCF7; assay: Synergistic antiproliferative activity against human MCF7 cells at 0.1 to 10000 nM incubated for 5 days in presence of Ribociclib by MTT assay; type: functional, cell-based; conditions: dose 0.1-10000 nM, time 5.0 day
[26] = test system: MCF7; assay: Induction of immunogenic cell death in human MCF7 cells assessed as CRT translocation at 10 uM by fluorescence microscopy; type: functional, cell-based
[27] = test system: MCF7; assay: Antitumor activity against human MCF7 cells xenografted in nude mouse model assessed as reduction in ER level at 60 mg/kg, po administered daily via gavage for 30 days in presence of ribociclib by IHC analysis; type: functional, organism-based; conditions: time 30.0 day
[28] = test system: MCF7; assay: Induction of immunogenic cell death in human MCF7 cells assessed as HMGB1 release from nucleus at 10 uM by fluorescence microscopy; type: functional, cell-based
[29] = test system: MCF7; assay: Induction of endoplasmic reticulum stress effect in human MCF7 cells assessed as change in ATF4 level at 10 uM incubated for 3 to 24 hrs by Western blot analysis; type: functional, cell-based; conditions: time 3-24 hrs
[30] = test system: MCF7; assay: Antitumor activity against human MCF7 cells xenografted in nude mouse model assessed as reduction in PR level at 60 mg/kg, po administered daily via gavage for 30 days in presence of ribociclib by IHC analysis; type: functional, organism-based; conditions: time 30.0 day
[31] = molecular target: T1, Estrogen receptor (Homo sapiens); assay: Induction of estrogen receptor degradation in estradiol-stimulated human MCF7 cells assessed as decrease in GREB1 mRNA level incubated for 24 hrs by RT-qPCR analysis; type: cell-based; conditions: dose 1-10 µM
[32] = Toxicity in nude mouse model xenografted with human MCF7 cells assessed as morphological change in kidney at 60 mg/kg, po administered daily via gavage for 30 days by H and E staining based analysis; type: organism-based; conditions: in vivo, 720 h, time 30 day
[33] = Toxicity in nude mouse model xenografted with human MCF7 cells assessed as morphological change in liver at 60 mg/kg, po administered daily via gavage for 30 days by H and E staining based analysis; type: organism-based; conditions: in vivo, 720 h, time 30 day
[34] = test system: MCF7; assay: Antitumor activity against human MCF7 cells xenografted in nude mouse model assessed as tumor growth inhibition at 60 mg/kg, po administered daily via gavage for 30 days; type: functional, organism-based; conditions: time 30.0 day
[35] = test system: MCF7; assay: Induction of endoplasmic reticulum stress effect in human MCF7 cells assessed as change in GRP78 level at 10 uM incubated for 3 to 24 hrs by Western blot analysis; type: functional, cell-based; conditions: time 3-24 hrs
[36] = test system: Uterus; assay: Effect on immature Sprague-Dawley rat uterus assessed as reduction in uterine wet weight at 60 mg/kg, po qd for 2 days by H and E staining based analysis; type: functional, organism-based; conditions: time 2.0 day
[37] = Toxicity in nude mouse model xenografted with human MCF7 cells assessed as morphological change in spleen at 60 mg/kg, po administered daily via gavage for 30 days by H and E staining based analysis; type: organism-based; conditions: in vivo, 720 h, time 30 day
[38] = test system: MCF7; assay: Induction of endoplasmic reticulum stress effect in human MCF7 cells assessed as change in calnexin level at 10 uM incubated for 24 hrs by immunofluorescence based analysis; type: functional, cell-based
[39] = test system: MCF7; assay: Induction of immunogenic cell death in human MCF7 cells assessed as ATP release […] at 10 uM; type: functional, cell-based
[40] = test system: MCF7; assay: Induction of endoplasmic reticulum stress effect in human MCF7 cells assessed as change in CHOP level at 10 uM incubated for 24 hrs by immunofluorescence based analysis; type: functional, cell-based

Compound: CC/C(=C(\c1ccccc1)c1ccc(OCCN(C)C)cc1)c1ccccc1 [TAMOXIFEN]
inhibition at 20 µM [1]: 86.5%
Activity [2]: inactive
IC50 [3]: 1560 nM
Activity [4]: 67.6%

Compound: Cc1cc(C)cc(C(=O)c2cnc3cc(O)ccc3c2Oc2ccc(/C=C/C(=O)O)cc2)c1
inhibition at 20 µM [1]: 30.9%
IC50 [3]: 4800 nM

Compound: CCc1ccccc1C(=O)c1cnc2cc(O)ccc2c1Oc1ccc(/C=C/C(=O)O)cc1F
inhibition at 20 µM [1]: 4.11%
IC50 [3]: 670 nM

Compound: CCc1ccccc1C(=O)c1cnc2cc(O)ccc2c1Oc1c(C)cc(/C=C/C(=O)O)cc1C
inhibition at 20 µM [1]: 11.5%

Compound: Cc1ccc(C(=O)c2cnc3cc(O)ccc3c2Oc2ccc(/C=C/C(=O)O)cc2)c(C)c1
inhibition at 20 µM [1]: -0.04%
IC50 [3]: 450 nM

Compound: C[C@]12CC[C@@H]3c4ccc(O)cc4CC[C@H]3[C@@H]1CC[C@@H]2O
Activity [2]: inactive

Compound: CCc1cc(/C=C/C(=O)O)ccc1Oc1c(C(=O)c2ccccc2CC)cnc2cc(O)ccc12
Activity [5]: Active
Activity [6]: Active
Activity [7]: inactive
Activity [8]: Active
Activity [9]: Active
Activity [10]: Dose-Dependent Effect
Activity [11]: Active
Activity [12]: Dose-Dependent Effect
Activity [13]: Non-Toxic
Activity [14]: Active
Activity [15]: Active
Activity [16]: inactive
inhibition at 20 µM [1]: 13.2%
Activity [17]: Active
Activity [18]: Dose-Dependent Effect
Activity [19]: Active
Activity [20]: Active
Activity [21]: Active
Activity [22]: Active
Activity [2]: inactive
Activity [23]: Active
Activity [24]: Non-Toxic
Activity [25]: Active
Activity [26]: Active
Activity [27]: Active
Activity [28]: Active
Activity [29]: Active
Activity [30]: Active
IC50 [3]: 510 nM
Activity [4]: 64%
Activity [31]: Dose-Dependent Effect
Activity [32]: Non-Toxic
Activity [33]: Non-Toxic
inhibition [34]: Active
Activity [35]: Active
Activity [36]: inactive
Activity [37]: Non-Toxic
Activity [38]: Active
Activity [39]: Active
Activity [40]: Active

Second part, led by results:

IC50 [3]: 690 nM
Compound: O=C(O)/C=C/c1ccc(Oc2c(C(=O)c3ccc(C(F)(F)F)cc3)cnc3cc(O)ccc23)cc1
inhibition at 20 µM [1]: -4.35%

IC50 [3]: 1360 nM
Compound: O=C(O)/C=C/c1ccc(Oc2c(C(=O)c3ccc(OC(F)(F)F)cc3)cnc3cc(O)ccc23)cc1
inhibition at 20 µM [1]: 20.4%

IC50 [3]: 370 nM
Compound: O=C(O)/C=C/c1ccc(Oc2c(C(=O)c3ccccc3C(F)(F)F)cnc3cc(O)ccc23)cc1
inhibition at 20 µM [1]: 27.5%

IC50 [3]: 420 nM
Compound: Cc1cc(F)ccc1C(=O)c1cnc2cc(O)ccc2c1Oc1ccc(/C=C/C(=O)O)cc1
inhibition at 20 µM [1]: 15.1%

IC50 [3]: 7170 nM
Compound: O=C(O)/C=C/c1ccc(Oc2c(C(=O)c3cccs3)cnc3cc(O)ccc23)cc1
inhibition at 20 µM [1]: 10.4%

IC50 [3]: 580 nM
Compound: CC(C)c1ccccc1C(=O)c1cnc2cc(O)ccc2c1Oc1ccc(/C=C/C(=O)O)cc1
inhibition at 20 µM [1]: 23.8%
